Test results: US20160067331A1 (priority 2013, published 2016)

How the values were obtained:
Lck = Lck (Homo sapiens, UniProt P06239); type: biochemical
[1] = tested on: T cell receptor (TCR) signaling; type: cell-based, human

Chain of Lck (P06239 whole entry): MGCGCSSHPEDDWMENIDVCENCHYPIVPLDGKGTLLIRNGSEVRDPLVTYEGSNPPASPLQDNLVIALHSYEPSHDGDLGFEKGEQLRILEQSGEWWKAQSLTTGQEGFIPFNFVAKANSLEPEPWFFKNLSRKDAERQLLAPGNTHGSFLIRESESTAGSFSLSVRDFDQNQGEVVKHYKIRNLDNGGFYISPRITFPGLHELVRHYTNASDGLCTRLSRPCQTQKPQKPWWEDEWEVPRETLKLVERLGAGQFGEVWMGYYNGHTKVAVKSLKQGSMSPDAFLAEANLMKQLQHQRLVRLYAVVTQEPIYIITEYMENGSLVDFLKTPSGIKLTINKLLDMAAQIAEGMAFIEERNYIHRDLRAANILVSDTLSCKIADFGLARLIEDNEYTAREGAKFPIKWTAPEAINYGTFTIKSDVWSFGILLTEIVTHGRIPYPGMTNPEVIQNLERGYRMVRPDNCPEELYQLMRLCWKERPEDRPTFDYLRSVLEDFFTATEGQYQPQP

Row | Sequence | Lck-mediated phosphorylation of synthetic peptide (Lck) | IL-2 production by PBMCs following TCR stimulation [1] | surface expression of T cell activation marker CD25 [1] | surface expression of T cell activation marker CD69 [1]
1 | GGAGLTGGRYEPLVRRC [TAT-276-292] | served as an in vitro Lck substrate | – | – | –
2 | GGGGGRKKRRQRRRVYGSVSVTCVWGS [TAT-Y87] | phosphorylated by Lck in a dose-dependent manner | inhibited | significantly reduced | significantly reduced
